The source of these data is US8022091B2, “Triazole derivative” (Taisho Pharmaceutical Co., Ltd., priority 2006, dated 2011).

As a reminder, the inhibition is the change of the read-out against control, counted positive when it falls.

For the test, the target named is T1, human Edg-1 (S1P1) (Homo sapiens, UniProt P21453).
T1 construct: expressed in transfected cells; host or cells: HEK-293
T1 sequence (P21453 whole entry): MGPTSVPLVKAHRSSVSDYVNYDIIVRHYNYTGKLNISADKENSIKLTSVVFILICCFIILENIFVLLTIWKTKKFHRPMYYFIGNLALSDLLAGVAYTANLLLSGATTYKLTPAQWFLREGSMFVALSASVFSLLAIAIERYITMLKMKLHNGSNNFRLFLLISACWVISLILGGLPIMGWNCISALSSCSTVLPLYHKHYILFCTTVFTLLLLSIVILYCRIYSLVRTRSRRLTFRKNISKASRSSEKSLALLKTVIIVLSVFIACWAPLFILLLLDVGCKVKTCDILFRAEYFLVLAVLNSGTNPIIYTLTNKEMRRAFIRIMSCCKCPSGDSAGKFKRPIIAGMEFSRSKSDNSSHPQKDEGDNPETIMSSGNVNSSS
As to the kind of experiment: S1P1 binding assay: inhibition of [33P]-S1P binding to membrane fraction of HEK-293 cells transferred with the human Edg-1 (S1P1) gene. Particulars: test compound 10 μM; inhibition of [33P]-S1P binding, membrane fraction. The method in brief: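 With 0.1 nM [33P]-S1P and compound (10^−5M single point, or a concentration range for IC50) in 0.1% DMSO, membrane fractions from human Edg-1-expressing HEK-293 cells were treated for one hour at 30° C in 20 mM Tris-HCl pH 7.4 with NaF, deoxypyridoxine and BSA. Bound label was measured after filtration, with untransfected-cell background subtracted.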
Consider `CCn1c(Oc2cccc(N3CCN(C)CC3)c2)nnc1[C@@H](C)NS(=O)(=O)c1cccc(Cl)c1Cl` [Compound 550], for which the inhibition at 10 µM was 104%. For the compound `CCn1c(Oc2cccc(N3CCN(C)CC3)c2)nnc1[C@@H](C)NS(=O)(=O)c1c(C)cccc1Cl` [Compound 551], the inhibition at 10 µM came to 76.1%. In the case of `CCn1c(Oc2cccc(N3CCN(C)CC3)c2)nnc1[C@@H](C)NS(=O)(=O)c1ccccc1Cl` [Compound 552] it was 67.2%. For the compound `CCn1c(Oc2cccc(N3CCN(C)CC3)c2)nnc1[C@@H](C)NS(=O)(=O)c1cc(C(F)(F)F)cc(C(F)(F)F)c1` [Compound 553], the inhibition at 10 µM turned out to be 107%. With `CCn1c(Oc2cccc(N3CCN(C)CC3)c2)nnc1[C@@H](C)NS(=O)(=O)c1cc(Cl)cc(Cl)c1` [Compound 554], the inhibition at 10 µM came to 116%.

For the compound `CCn1c(Oc2cccc(N3CCN(C)CC3)c2)nnc1[C@@H](C)NS(=O)(=O)c1cccc(Cl)c1C` [Compound 555], the inhibition at 10 µM was 102%. Take `CCn1c(Oc2cccc(N3CCN(C)CC3)c2)nnc1[C@@H](C)NS(=O)(=O)c1cccc(OC)c1` [Compound 556]: the inhibition at 10 µM turned out to be 105%.

In the case of `CCn1c(Oc2cccc(N3CCN(C)CC3)c2)nnc1[C@@H](C)NS(=O)(=O)c1cc(F)c(Br)cc1F` [Compound 557], the inhibition at 10 µM amounted to 107%. Consider `CCn1c(Oc2cccc(N3CCN(C)CC3)c2)nnc1[C@@H](C)NS(=O)(=O)c1c(C)cc(OC)c(C)c1C` [Compound 558], for which the inhibition at 10 µM was 64.8%. `CCn1c(Oc2cccc(N3CCN(C)CC3)c2)nnc1[C@@H](C)NS(=O)(=O)c1cc(Br)ccc1OC` [Compound 559]: the inhibition at 10 µM was 79.3%. To `CCn1c(Oc2cccc(N3CCN(C)CC3)c2)nnc1[C@@H](C)NS(=O)(=O)c1cc(F)ccc1C` [Compound 560] belongs 74.4%; to `CCn1c(Oc2cccc(N3CCN(C)CC3)c2)nnc1[C@@H](C)NS(=O)(=O)c1c(C)c(C)c(C)c(C)c1C` [Compound 561], 92.4%. As to `CCn1c(Oc2cccc(N3CCN(C)CC3)c2)nnc1[C@@H](C)NS(=O)(=O)c1cc(C)ccc1OC` [Compound 562], the inhibition at 10 µM is 93.3%. To `CCn1c(Oc2cccc(N3CCN(C)CC3)c2)nnc1[C@@H](C)NS(=O)(=O)c1ccccc1OC(F)(F)F` [Compound 563] belongs 64.1%. In the case of `CCn1c(Oc2cccc(N3CCN(C)CC3)c2)nnc1[C@@H](C)NS(=O)(=O)c1ccc(C#N)cc1` [Compound 564] it was 105%; in that of `CCn1c(Oc2cccc(N3CCN(C)CC3)c2)nnc1[C@@H](C)NS(=O)(=O)c1c(Cl)cc(Cl)cc1Cl` [Compound 566], 88.7%; in that of `CCn1c(Oc2cccc(N3CCN(C)CC3)c2)nnc1[C@@H](C)NS(=O)(=O)c1ccc(Cl)cc1Cl` [Compound 567], 102%.

`CCn1c(Oc2cccc(N3CCN(C)CC3)c2)nnc1[C@@H](C)NS(=O)(=O)c1ccc(F)cc1F` [Compound 568]: the inhibition at 10 µM was determined as 71.1%. Turning to `CCn1c(Oc2cccc(N3CCN(C)CC3)c2)nnc1[C@@H](C)NS(=O)(=O)c1cc(OC)ccc1OC` [Compound 569], the inhibition at 10 µM was found to be 75%.

Regarding `CCn1c(Oc2cccc(N3CCN(C)CC3)c2)nnc1[C@@H](C)NS(=O)(=O)c1ccc(F)cc1Cl` [Compound 570], the inhibition at 10 µM turned out to be 77.4%.

With `CCn1c(Oc2cccc(N3CCN(C)CC3)c2)nnc1[C@@H](C)NS(=O)(=O)c1ccccc1F` [Compound 571], the inhibition at 10 µM was 55.7%. In the case of `CCn1c(Oc2cccc(N3CCN(C)CC3)c2)nnc1[C@@H](C)NS(=O)(=O)c1cccc(Cl)c1` [Compound 572] it was 96.5%. As to `CCn1c(Oc2cccc(N3CCN(C)CC3)c2)nnc1[C@@H](C)NS(=O)(=O)c1ccc(C(C)C)cc1` [Compound 573], the inhibition at 10 µM amounted to 86.3%. With `CCc1cc(Br)ccc1S(=O)(=O)N[C@H](C)c1nnc(Oc2cccc(N3CCN(C)CC3)c2)n1CC` [Compound 574], the inhibition at 10 µM is 86.9%.

Regarding `CCn1c(Oc2cccc(N3CCN(C)CC3)c2)nnc1[C@@H](C)NS(=O)(=O)c1ccc(Br)cc1C` [Compound 575], the inhibition at 10 µM was 104%.

Take `CCn1c(Oc2cccc(N3CCN(C)CC3)c2)nnc1[C@@H](C)NS(=O)(=O)c1ccc(C#N)cc1Cl` [Compound 576]: the inhibition at 10 µM stood at 81.4%. To `CCn1c(Oc2cccc(N3CCN(C)CC3)c2)nnc1[C@@H](C)NS(=O)(=O)c1ccc(F)c(F)c1F` [Compound 577] belongs 92.4%.

For the compound `CCn1c(Oc2cccc(N3CCN(C)CC3)c2)nnc1[C@@H](C)NS(=O)(=O)c1c(Cl)cc(C(F)(F)F)cc1Cl` [Compound 579], the inhibition at 10 µM came to 87.6%. As to `CCn1c(Oc2cccc(N3CCN(C)CC3)c2)nnc1[C@@H](C)NS(=O)(=O)c1cc(F)c(F)cc1Cl` [Compound 580], the inhibition at 10 µM is 89.2%. In the case of `CCn1c(Oc2cccc(N3CCN(C)CC3)c2)nnc1[C@@H](C)NS(=O)(=O)c1ccc(F)c(F)c1` [Compound 581] it was 99.9%; in that of `CCn1c(Oc2cccc(N3CCN(C)CC3)c2)nnc1[C@@H](C)NS(=O)(=O)c1ccc(Br)cc1F` [Compound 582], 106%. In the case of `CCn1c(Oc2cccc(N3CCN(C)CC3)c2)nnc1[C@@H](C)NS(=O)(=O)c1cc(F)c(Cl)cc1F` [Compound 583], the inhibition at 10 µM is 109%. To `CCn1c(Oc2cccc(N3CCN(C)CC3)c2)nnc1[C@@H](C)NS(=O)(=O)Cc1ccc(Cl)c(Cl)c1` [Compound 586] belongs 87.9%; to `CCn1c(Oc2cccc(N3CCN(C)CC3)c2)nnc1[C@@H](C)NS(=O)(=O)CC(c1ccccc1)c1ccccc1` [Compound 587], 60%; to `CCn1c(Oc2cccc(N3CCN(C)CC3)c2)nnc1[C@@H](C)NS(=O)(=O)c1cc(C)c(Cl)cc1Cl` [Compound 588], 109%. To `CCn1c(Oc2cccc(N3CCN(C)CC3)c2)nnc1[C@@H](C)NS(=O)(=O)c1c(F)c(Br)cc(F)c1Br` [Compound 589] belongs 80.2%; to `CCn1c(Oc2cccc(N3CCN(C)CC3)c2)nnc1[C@@H](C)NS(=O)(=O)c1c(F)cccc1F` [Compound 590], 62.3%.

Take `CCn1c(Oc2cccc(N3CCN(C)CC3)c2)nnc1[C@@H](C)NS(=O)(=O)c1cc(C(F)(F)F)ccc1Cl` [Compound 591]: the inhibition at 10 µM was found to be 77.5%. `CCn1c(Oc2cccc(N3CCN(C)CC3)c2)nnc1[C@@H](C)NS(=O)(=O)c1cccc(F)c1` [Compound 592]: the inhibition at 10 µM was determined as 95.8%. In the case of `CCn1c(Oc2cccc(N3CCN(C)CC3)c2)nnc1[C@@H](C)NS(=O)(=O)c1ccc(NC(C)=O)c(Cl)c1` [Compound 593] it was 65.9%; in that of `CCn1c(Oc2cccc(N3CCN(C)CC3)c2)nnc1[C@@H](C)NS(=O)(=O)c1cc(Cl)ccc1OC` [Compound 594], 84%; in that of `CCn1c(Oc2cccc(N3CCN(C)CC3)c2)nnc1[C@@H](C)NS(=O)(=O)c1c(C)cc(Cl)cc1Cl` [Compound 595], 93.7%. In the case of `CCn1c(Oc2cccc(N3CCN(C)CC3)c2)nnc1[C@@H](C)NS(=O)(=O)c1cc(F)c(F)cc1F` [Compound 596] it was 100%. To `CCn1c(Oc2cccc(N3CCN(C)CC3)c2)nnc1[C@@H](C)NS(=O)(=O)c1cc(Br)ccc1Br` [Compound 597] belongs 97.3%.
